Experimental data reported in patent publication US20250345295A1, “LMK235 COMPOSITIONS AND METHODS” (UNM Rainforest Innovations, priority 2024, published 2025).
Entries after “also recorded” stand apart in the source; their conditions may differ.

Key:
FRICT-ION mice = assay: Cold probe (10° C.) sensitivity test, FRICT-ION model; assay type: in vivo, mouse; conditions: 5 mg/kg, vs FRICT-ION+vehicle
Excerpt: The FRICT-ION chronic neuropathic pain model combines the chemical irritation of chromic gut suture with some physical compression of the maxillary branch (V2) of the trigeminal nerve. FRICT-ION model was induced in 9-week-old mice anesthetized briefly with isoflurane (2-3%). Intraoral surgical incision was made with a small scalpel puncture at the buccal cheek crease. A piece of chromic gut suture (3 mm length, 4-0) was placed parallel to the infraorbital nerve (ION) and pushed into the tight space to follow the trigeminal nerve as it passes into the foramen rotundum of the skull. The model simulates blunt force traumatic injury to the nerve, residual wound debris, or other irritation.
On the day of FRICT-ION model induction in BALBc mice, LMK235 was administered and treatment was continued for seven days. Withdrawal thresholds were determined weekly with von Frey fiber stimulation on the snout. Cold sensitivity on the snout and anxiety were tested once prior to experiment end in week 8-9.
Mechanical and cold sensitivity was modified for face as previously described (Montera M A, Westlund K N, Bio-protocol2020 April 20; 10(8):e3591-e3591; Lyons et al., Neuroscience 2015 Jun. 4; 295:126-138; Ma et al., Mol Brain 2012 Dec. 28; 5:44; Montera et al., Channels (Austin). 2021 December; 15(1):31-37). […]

[1] = system: small (<30 μm) TG neurons from FRICT-ION mice; assay: Whole-cell patch-clamp electrophysiology, TG neurons from FRICT-ION mice; assay type: cell-based, mouse; conditions: 13 μM for one hour vs 0.1% DMSO
Method: The excitability of TG neurons is directly linked to the pathophysiology of trigeminal neuropathic pain. In order to determine the effect of LMK235 on TG neurons from FRICT-ION mice, whole-cell patch-clamp electrophysiological recordings were made from small (<30 μm) TG neurons in the presence of LMK235 (13 μM) or vehicle (0.1% DMSO). TG neurons were obtained from FRICT-ION mice at three weeks post injury or naïve mice. The TG neurons were treated for one hour in vitro with either LMK235 or vehicle control prior to recording (FIG. 7).
Neurons with a diameter of <30 μm were identified by infrared differential interference contrast (IR-DIC) imaging with a microscope connected to an Olympus digital camera. Current clamp recordings were performed using a Molecular Devices Multiclamp 700B (Scientifica, UK). Signals were filtered at 5 KHz, acquired at 50 KHz using a Molecular Devices 1550B converter (Scientifica, UK) and recorded using Clampex 11 software (Molecular Devices, Scientifica, UK). Electrodes were pulled with a Zeitz puller (Werner Zeitz, Martinsreid, Germany) from borosilicate thick glass (GC150F, Sutter Instruments). Electrode resistance was 5-8 MΩ. Bridge balance was applied to all recordings. Intracellular solution contained (in mM) 125 K-gluconate, 6 KCl, 10 HEPES, 0.1 EGTA, 2 Mg-ATP, pH 7.3 with KOH, and osmolarity of 290-310 mOsm. Artificial cerebrospinal fluid (aCSF) contained (in mM) 113 NaCl, 3 KCl, 25 NaHCO3, 1 NaH2PO4, 2 CaCl2), 2 MgCl2, and 11-glucose. For whole-cell current clamp recordings, to evaluate the basic input-output action potential frequency response to hyperpolarization and depolarization, DC current was injected from 0 pA to +200 pA in 10-pA increments for a duration of 500 milliseconds at the cell's intrinsic resting membrane potential. Data acquisition was sampled at 20 kHz and filtered at 2.4 kHz. Recordings with a series resistance greater than 20 MΩ were discarded, and series resistance was compensated to 70%. In response to a −100 pA hyperpolarizing pulse with 500 millisecond duration, voltage sag amplitude was measured. Sag ratio was calculated using the following equation as described previously (Fan et al., Front Cell Neurosci 2016 Mar. 24; 10:74):
where Vpeak is the maximum voltage deflection and Vss is the steady state voltage at the end of the hyperpolarizing pulse.
Male mice were euthanized three weeks after inducing the FRICT-ION model. The TG were dissected, minced, and dissociated in an enzymatic combination containing sterile, calcium-free, and magnesium-free HBSS (Cat #14170112, Gibco), papain suspension (32.7 U/mgP, Cat #LS003126; Worthington, Lakewood, NJ), L-Cysteine (Cat #C7352-25g, Sigma), and saturated bicarbonate (Cat #S5761-500g, Sigma) solution. […]

HDAC 5 = HDAC 5 (Homo sapiens, UniProt Q9UQL6); conditions: cited from earlier work
Chain of HDAC 5 (Q9UQL6 whole entry, species assumed): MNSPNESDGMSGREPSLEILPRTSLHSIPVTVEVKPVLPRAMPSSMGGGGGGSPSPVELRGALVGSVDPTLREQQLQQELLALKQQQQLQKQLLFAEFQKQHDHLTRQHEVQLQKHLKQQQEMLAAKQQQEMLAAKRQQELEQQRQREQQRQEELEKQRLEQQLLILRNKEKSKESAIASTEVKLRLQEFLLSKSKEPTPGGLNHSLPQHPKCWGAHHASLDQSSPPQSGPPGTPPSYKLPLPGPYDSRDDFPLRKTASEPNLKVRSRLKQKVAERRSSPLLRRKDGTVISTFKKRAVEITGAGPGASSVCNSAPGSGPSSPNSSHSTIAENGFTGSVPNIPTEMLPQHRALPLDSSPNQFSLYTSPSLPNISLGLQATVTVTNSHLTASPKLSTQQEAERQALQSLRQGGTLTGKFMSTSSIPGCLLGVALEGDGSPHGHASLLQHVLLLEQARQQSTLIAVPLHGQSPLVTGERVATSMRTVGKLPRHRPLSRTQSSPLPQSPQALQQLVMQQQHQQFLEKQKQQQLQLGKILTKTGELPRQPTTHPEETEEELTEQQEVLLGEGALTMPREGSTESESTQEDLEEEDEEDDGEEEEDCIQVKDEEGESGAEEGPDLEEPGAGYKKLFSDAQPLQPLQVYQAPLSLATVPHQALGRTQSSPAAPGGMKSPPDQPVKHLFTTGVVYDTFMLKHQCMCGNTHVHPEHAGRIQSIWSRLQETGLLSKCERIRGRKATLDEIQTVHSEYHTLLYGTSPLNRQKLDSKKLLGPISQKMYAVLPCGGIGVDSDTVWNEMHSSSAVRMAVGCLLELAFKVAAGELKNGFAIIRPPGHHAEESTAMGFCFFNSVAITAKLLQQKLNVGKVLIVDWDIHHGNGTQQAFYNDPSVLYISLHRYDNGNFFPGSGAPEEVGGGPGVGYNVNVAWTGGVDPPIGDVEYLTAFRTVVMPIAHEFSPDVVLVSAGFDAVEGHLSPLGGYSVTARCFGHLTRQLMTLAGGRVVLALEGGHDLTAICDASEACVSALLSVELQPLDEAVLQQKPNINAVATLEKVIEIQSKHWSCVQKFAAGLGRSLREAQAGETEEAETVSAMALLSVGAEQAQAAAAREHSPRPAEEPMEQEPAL

With `Cc1cc(C)cc(C(=O)NOCCCCCC(=O)NO)c1` [LMK235, N-[[6-(Hydroxyamino)-6-oxohexyl]oxy]-3,5-dimethyl-benzamide] the “cold hypersensitivity (10° C. cold probe on snout)” value (FRICT-ION mice) was “significantly improved; also recorded: reduced”, the “distribution of high (>200 pA) vs low (<200 pA) threshold TG neurons” value [1] was “higher proportion of high threshold (>200 pA) neurons” and the “resting membrane potential (RMP)” value [1] was “not significantly altered; also recorded: no significant differences”. The rheobase [1] was “not significantly altered; also recorded: no significant differences”, the sag ratio [1] was “significantly lower; also recorded: reduced” and the IC50 (HDAC 5) was 4 nM.
